Test results taken from ChEMBL document CHEMBL5120822, “Inhibition of the P2X7/NLRP3 Inflammasome Signaling Pathway by Deacetylgedunin from Toona sinensis” (J Nat Prod, 2022).
pIC50: −log10 of the molar value. Active and inactive are the calls of the source. The calls are words filed in the database; no cut-off is given here.

How the values were obtained:
RAW264.7 [1] = test: Cytotoxicity against mouse RAW264.7 cells derived macrophage assessed as reduction in cell viability upto 40 uM incubated for 24 hrs by CCK-8 assay; assay type: toxicity, cell-based; conditions: raw264.7, 24 h
J774.1 = test: Cytotoxicity against mouse J774.1 cells derived macrophage assessed as reduction in cell viability upto 40 uM incubated for 24 hrs by CCK-8 assay; assay type: toxicity, cell-based; conditions: j774.1, 24 h
THP-1 [2] = test: Cytotoxicity against human THP-1 cells derived macrophage assessed as reduction in cell viability upto 40 uM incubated for 24 hrs by CCK-8 assay; assay type: toxicity, cell-based; conditions: thp-1, 24 h
RAW264.7 [3] = test: Antiinflammatory activity in mouse RAW264.7 assessed as inhibition of LPS-induced NO production incubated for 1 hrs followed by LPS stimulation for 18 hrs by Griess reagent based assay; assay type: functional, cell-based
THP-1 [4] = test: Antiinflammatory activity against PMA-differentiated human THP-1 cells assessed as reduction in IL-1beta level at 20 uM incubated for 1 hrs followed by LPS stimulation for 12 hrs and ATP addition for 0.5 hrs by ELISA; assay type: functional, cell-based; conditions: time 13.5 hrs
THP-1 [5] = test: Cytotoxicity against human THP-1 cells assessed as survival rate at < 40 uM by CCK8 assay; assay type: toxicity, cell-based; conditions: thp-1, 40 µM
[6] = molecular target: NACHT, LRR and PYD domains-containing protein 3 (Homo sapiens) (UniProt Q96P20); test: Inhibition of NLRP3 inflammasome activation in PMA-differentiated and LPS/NIG-stimulated human THP-1 cells assessed as inhibition of IL-1beta secretion at 20 uM incubated for 1 hrs followed by LPS stimulation for 12 hrs and NIG addition for 2 hrs by ELISA; assay type: cell-based; conditions: time 15.0 hrs
THP-1 [7] = test: Antiinflammatory activity against PMA-differentiated and LPS/ATP stimulated human THP-1 cells assessed as increase in cell viability at 5 to 20 uM incubated for 1 hrs followed by LPS stimulation for 12 hrs and ATP addition for 0.5 hrs by CCK8 assay; assay type: functional, cell-based; conditions: dose 5-20 µM, time 13.5 hrs
[8] = molecular target: NACHT, LRR and PYD domains-containing protein 3 (Homo sapiens) (UniProt Q96P20); test: (§1) Inhibition of NLRP3 inflammasome activation in PMA-differentiated and LPS/ATP-stimulated human THP-1 cells assessed as inhibition of IL-1beta secretion at 5 to 20 uM incubated for 1 hrs followed by LPS stimulation for 12 hrs and ATP addition for 0.5 hrs by ELISA; assay type: cell-based; conditions: dose 5-20 µM, time 13.5 hrs, DDE = dose-dependent effect
[9] = molecular target: NACHT, LRR and PYD domains-containing protein 3 (Homo sapiens) (UniProt Q96P20); test: (§2) Inhibition of NLRP3 inflammasome activation in PMA-differentiated and LPS/ATP-stimulated human THP-1 cells assessed as decrease in caspase-1 expression at 5 to 20 uM incubated for 1 hrs followed by LPS stimulation for 12 hrs and ATP addition for 0.5 hrs by western blot analysis; assay type: cell-based; conditions: dose 5-20 µM, time 13.5 hrs
[10] = molecular target: NACHT, LRR and PYD domains-containing protein 3 (Homo sapiens) (UniProt Q96P20); test: Inhibition of NLRP3 inflammasome activation in PMA-differentiated and LPS/ATP-stimulated human THP-1 cells assessed as decrease in pro-IL-1beta expression at 5 to 20 uM incubated for 1 hrs followed by LPS stimulation for 12 hrs and ATP addition for 0.5 hrs by western blot analysis; assay type: cell-based; conditions: dose 5-20 µM, time 13.5 hrs
[11] = molecular target: NACHT, LRR and PYD domains-containing protein 3 (Homo sapiens) (UniProt Q96P20); test: Inhibition of NLRP3 inflammasome activation in PMA-differentiated and LPS/MSU-stimulated human THP-1 cells assessed as inhibition of IL-1beta secretion at 20 uM incubated for 1 hrs followed by LPS stimulation for 12 hrs and MSU addition for 6 hrs by ELISA; assay type: cell-based; conditions: time 19.0 hrs
[12] = molecular target: NACHT, LRR and PYD domains-containing protein 3 (Homo sapiens) (UniProt Q96P20); test: as §2, with “downregulation of NF-KappaB p65 subunit phosphorylation” for “decrease in caspase-1 expression”, “Western” for “western”; assay type: cell-based; conditions: dose 5-20 µM, time 13.5 hrs
[13] = molecular target: NACHT, LRR and PYD domains-containing protein 3 (Homo sapiens) (UniProt Q96P20); test: Inhibition of NLRP3 inflammasome activation in PMA-differentiated and LPS/ATP-stimulated human THP-1 cells assessed as reduction in total NF-KappaB P65 nuclear expression at 5 to 20 uM incubated for 1 hrs followed by LPS stimulation for 12 hrs and ATP addition for 0.5 hrs by Western blot analysis; assay type: cell-based; conditions: dose 5-20 µM, time 13.5 hrs
[14] = molecular target: NACHT, LRR and PYD domains-containing protein 3 (Homo sapiens) (UniProt Q96P20); test: Inhibition of NLRP3 inflammasome activation in PMA-differentiated and LPS/ATP-stimulated human THP-1 cells assessed as reduction in nuclear localization of NF-KappaB at 20 uM incubated for 1 hrs followed by LPS stimulation for 12 hrs and ATP addition for 0.5 hrs by DAPI staining based immunofluorescence analysis; assay type: cell-based; conditions: time 13.5 hrs
[15] = molecular target: NACHT, LRR and PYD domains-containing protein 3 (Homo sapiens) (UniProt Q96P20); test: (§3) Inhibition of NLRP3 inflammasome activation in PMA-differentiated and LPS/ATP-stimulated human THP-1 cells assessed as inhibition of IL-6 secretion at 20 uM incubated for 1 hrs followed by LPS stimulation for 12 hrs and ATP addition for 0.5 hrs by ELISA; assay type: cell-based; conditions: time 13.5 hrs
[16] = molecular target: NACHT, LRR and PYD domains-containing protein 3 (Homo sapiens) (UniProt Q96P20); test: Inhibition of NLRP3 inflammasome activation in PMA-differentiated and LPS/NIG-stimulated human THP-1 cells assessed as decrease of ASC polymers at 20 uM incubated for 1 hrs followed by LPS stimulation for 12 hrs and NIG addition for 2 hrs by Western blot analysis; assay type: cell-based; conditions: time 15.0 hrs
[17] = molecular target: NACHT, LRR and PYD domains-containing protein 3 (Homo sapiens) (UniProt Q96P20); test: as §1, with “assessed as increase in potassium ion concentration” for “inhibition of IL-1beta secretion”, “EPG-2 AM staining based flow cytometry” for “ELISA”; assay type: cell-based; conditions: dose 5-20 µM, time 13.5 hrs
[18] = molecular target: NACHT, LRR and PYD domains-containing protein 3 (Homo sapiens) (UniProt Q96P20); test: as §3, with “assessed as increase in intracellular chloride concentration” for “inhibition of IL-6 secretion”, “MQAE staining based flow cytometry” for “ELISA”; assay type: cell-based; conditions: time 13.5 hrs

Chain of NACHT, LRR and PYD domains-containing protein 3 (Homo sapiens) (Q96P20 whole entry, the tested form may be a part): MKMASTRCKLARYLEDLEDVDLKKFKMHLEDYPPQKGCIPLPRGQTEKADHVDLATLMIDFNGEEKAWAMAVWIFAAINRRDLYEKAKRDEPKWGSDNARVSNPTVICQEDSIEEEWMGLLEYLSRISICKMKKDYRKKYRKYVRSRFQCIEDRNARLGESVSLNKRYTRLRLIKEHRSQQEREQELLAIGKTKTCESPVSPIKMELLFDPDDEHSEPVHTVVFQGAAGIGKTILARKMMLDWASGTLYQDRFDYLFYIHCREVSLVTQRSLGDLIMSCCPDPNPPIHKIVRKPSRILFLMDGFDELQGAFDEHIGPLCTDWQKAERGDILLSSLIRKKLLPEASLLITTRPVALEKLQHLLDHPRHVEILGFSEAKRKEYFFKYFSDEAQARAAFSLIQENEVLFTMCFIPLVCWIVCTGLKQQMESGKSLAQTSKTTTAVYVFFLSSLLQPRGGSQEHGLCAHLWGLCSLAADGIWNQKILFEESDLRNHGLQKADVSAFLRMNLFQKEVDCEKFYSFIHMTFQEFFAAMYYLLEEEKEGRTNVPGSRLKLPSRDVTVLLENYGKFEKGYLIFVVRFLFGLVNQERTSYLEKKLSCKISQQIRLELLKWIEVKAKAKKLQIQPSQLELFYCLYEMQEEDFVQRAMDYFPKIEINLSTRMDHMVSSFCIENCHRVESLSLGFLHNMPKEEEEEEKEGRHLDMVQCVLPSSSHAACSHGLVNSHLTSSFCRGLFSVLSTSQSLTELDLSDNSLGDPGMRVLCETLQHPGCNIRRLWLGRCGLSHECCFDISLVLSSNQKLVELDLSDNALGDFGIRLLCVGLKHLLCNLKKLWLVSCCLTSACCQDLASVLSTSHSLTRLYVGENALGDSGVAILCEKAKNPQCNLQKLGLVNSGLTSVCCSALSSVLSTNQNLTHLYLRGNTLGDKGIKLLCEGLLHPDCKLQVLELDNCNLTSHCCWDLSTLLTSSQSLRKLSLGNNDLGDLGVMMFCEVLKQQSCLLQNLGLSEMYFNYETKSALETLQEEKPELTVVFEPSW

In the case of CC1(C)C(=O)C=C[C@]2(C)[C@H]3CC[C@@]4(C)[C@H](c5ccoc5)OC(=O)[C@H]5O[C@]54[C@]3(C)[C@H](O)C[C@@H]12 [DEACETYLGEDUNIN], the Activity (RAW264.7 [1]) was “Non-Toxic”, the Activity (J774.1) was “Non-Toxic” and the Activity (THP-1 [2]) was “Non-Toxic”. For the same compound, the pIC50 (RAW264.7 [3]) was 5.04, the Activity (THP-1 [4]) was “Active” and the Activity (THP-1 [5]) was “Non-Toxic”. The inhibition [6] was “Active”, the Activity (THP-1 [7]) was “Active” and the inhibition [8] was “Dde”. The inhibition [9] was “Active”, the inhibition [10] was “Active” and the inhibition [11] was “Active”. For the same compound, the inhibition [12] was “Active”, the inhibition [13] was “Active” and the inhibition [14] was “Active”. For the same compound, the inhibition [15] was “Active”, the inhibition [16] was “Active” and the inhibition [17] was “Active”. The inhibition [18] was “Active”.
